Experiment: Solubilization of sparingly water-soluble active ingredient in aqueous poloxamer formulations, quantified by UV/Vis spectroscopy
Format: physicochemical
Description: General procedure for the preparation of the aqueous formulations: […]
The data in % by weight in the tables below refer to the total amount of the aqueous formulation.
Components A and B in the amounts stated below in each case and also 2% by weight of active ingredient were dissolved in water (at 20° C. and ambient pressure).
The sample was stirred at 20° C. for 24 h (magnetic stirrer 500 rpm) and then filtered through an injection filter (PVDF filter membrane, 0.45 μm pore size).
The active ingredient quantification takes place via UV/Vis spectroscopy. For this, the samples were diluted with an organic solvent in which the active ingredient dissolves to at least 10 000 ppm (1% by weight) (ethanol).
By contrast, the solubilizing effect of a 5% strength by weight aqueous solution of PE10400 as individual component was stipulated as standard with the value 1 and the solubilizing effect of the mixtures was determined against this standard.
The solubilizing effect of a 5% strength by weight aqueous solution of PE 10400 was again selected as standard 1.

In the case of `Cn1cc(C(=O)Nc2ccccc2-c2cc(F)c(F)c(F)c2)c(C(F)F)n1` [fluxapyroxad], the “solubility in a 5% strength by weight aqueous solution of PE 4300 (component B)” value (5% by weight PE 4300 in water, 20° C., 24 h stirring, filtered 0.45 μm) is reported as 28 ppm, the “solubility in a 5% strength by weight aqueous solution of PE 6200 (component B)” value (5% by weight PE 6200 in water, 20° C., 24 h stirring, filtered 0.45 μm) is reported as 31 ppm and the “solubility in a 5% strength by weight aqueous solution of PE 10400 (component A)” value (5% by weight PE 10400 in water, 20° C., 24 h stirring, filtered 0.45 μm) is reported as 710 ppm. The “solubility in pure water” value (pure water) was 5 ppm.
